Measured values as given in PMC8237267 (Journal of Medicinal Chemistry, 2021).
Several values for one entry are separate records, joined by “and”; a condition that tells them apart may be missing. Equal entries are not always repeated. Where two headings read alike, the source gives them in different places.

What was measured:
[1] = molecular target: T1, HDAC3 (Homo sapiens, UniProt O15379); assay: HDAC EMSA activity assay (Nanosyn); type: biochemical; conditions: recombinant enzyme, read-out: In vitro IC50 HDAC3
T1 construct: The full-length human HDACs were recombinantly expressed and purified from SF9 insect cells; host or cells: SF9 insect cells
T1 sequence (O15379 whole entry): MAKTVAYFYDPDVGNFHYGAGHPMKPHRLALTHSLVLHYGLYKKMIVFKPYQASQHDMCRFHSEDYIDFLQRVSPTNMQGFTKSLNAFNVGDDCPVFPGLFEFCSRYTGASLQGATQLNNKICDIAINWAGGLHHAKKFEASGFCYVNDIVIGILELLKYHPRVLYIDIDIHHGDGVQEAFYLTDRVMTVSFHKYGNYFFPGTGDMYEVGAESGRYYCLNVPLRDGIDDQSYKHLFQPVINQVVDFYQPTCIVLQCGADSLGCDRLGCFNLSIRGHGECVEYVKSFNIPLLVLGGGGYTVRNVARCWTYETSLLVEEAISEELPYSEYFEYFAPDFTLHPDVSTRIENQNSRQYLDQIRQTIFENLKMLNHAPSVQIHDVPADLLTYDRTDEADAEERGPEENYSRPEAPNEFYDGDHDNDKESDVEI
T1 sequence (Q9Y618 395-489 partner limits assumed): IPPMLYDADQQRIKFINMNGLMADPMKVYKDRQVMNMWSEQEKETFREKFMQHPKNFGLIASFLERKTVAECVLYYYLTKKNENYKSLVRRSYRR

[2] = molecular target: T2, HDAC8 (Homo sapiens, UniProt Q9BY41); assay: HDAC EMSA activity assay (Nanosyn); type: biochemical; conditions: for IC50: recombinant enzyme, EMSA (Nanosyn), read-out: In vitro IC50 HDAC8
T2 construct: The full-length human HDACs were recombinantly expressed and purified from SF9 insect cells; host or cells: SF9 insect cells
T2 sequence (Q9BY41 1-377): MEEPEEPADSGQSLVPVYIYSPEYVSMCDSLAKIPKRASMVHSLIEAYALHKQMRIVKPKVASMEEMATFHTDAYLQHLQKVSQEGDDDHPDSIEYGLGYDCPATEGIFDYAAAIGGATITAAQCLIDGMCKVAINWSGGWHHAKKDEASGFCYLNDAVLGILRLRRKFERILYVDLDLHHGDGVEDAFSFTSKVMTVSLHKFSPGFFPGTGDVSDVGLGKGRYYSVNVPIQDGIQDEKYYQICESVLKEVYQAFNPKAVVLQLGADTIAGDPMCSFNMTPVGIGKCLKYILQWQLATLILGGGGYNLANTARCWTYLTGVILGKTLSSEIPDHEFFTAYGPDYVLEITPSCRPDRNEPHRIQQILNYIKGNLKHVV

[3] = molecular target: T3, HDAC11 (Homo sapiens, UniProt Q96DB2); assay: HDAC EMSA activity assay (Nanosyn); type: biochemical; conditions: recombinant enzyme, read-out: In vitro IC50 HDAC11
T3 construct: The full-length human HDACs were recombinantly expressed and purified from SF9 insect cells; host or cells: SF9 insect cells
T3 sequence (Q96DB2 1-347): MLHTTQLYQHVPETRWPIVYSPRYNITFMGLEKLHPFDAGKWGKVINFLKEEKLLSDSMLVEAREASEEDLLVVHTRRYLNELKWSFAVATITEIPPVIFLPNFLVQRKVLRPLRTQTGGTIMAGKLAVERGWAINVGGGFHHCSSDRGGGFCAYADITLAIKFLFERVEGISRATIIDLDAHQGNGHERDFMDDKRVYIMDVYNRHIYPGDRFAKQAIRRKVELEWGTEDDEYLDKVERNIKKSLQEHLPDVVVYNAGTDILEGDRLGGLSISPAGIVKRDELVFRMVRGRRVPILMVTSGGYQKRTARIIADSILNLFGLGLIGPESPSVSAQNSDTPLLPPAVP

[4] = test system: MRC-9; assay: Cytotoxicity assay (Cell Titer-Blue, 72 h); type: cell-based
[5] = molecular target: T4, HDAC6 (Homo sapiens, UniProt Q9UBN7); assay: HDAC EMSA activity assay (Nanosyn); type: biochemical; set-up: The full-length human HDACs were recombinantly expressed and purified from SF9 insect cells; host or cells: SF9 insect cells; conditions: for IC50: EMSA (Nanosyn); for HDAC6 fold-selectivity: over the next closest HDAC isoform tested, * = selectivity ≥ indicated value
T4 sequence (Q9UBN7 1-1215): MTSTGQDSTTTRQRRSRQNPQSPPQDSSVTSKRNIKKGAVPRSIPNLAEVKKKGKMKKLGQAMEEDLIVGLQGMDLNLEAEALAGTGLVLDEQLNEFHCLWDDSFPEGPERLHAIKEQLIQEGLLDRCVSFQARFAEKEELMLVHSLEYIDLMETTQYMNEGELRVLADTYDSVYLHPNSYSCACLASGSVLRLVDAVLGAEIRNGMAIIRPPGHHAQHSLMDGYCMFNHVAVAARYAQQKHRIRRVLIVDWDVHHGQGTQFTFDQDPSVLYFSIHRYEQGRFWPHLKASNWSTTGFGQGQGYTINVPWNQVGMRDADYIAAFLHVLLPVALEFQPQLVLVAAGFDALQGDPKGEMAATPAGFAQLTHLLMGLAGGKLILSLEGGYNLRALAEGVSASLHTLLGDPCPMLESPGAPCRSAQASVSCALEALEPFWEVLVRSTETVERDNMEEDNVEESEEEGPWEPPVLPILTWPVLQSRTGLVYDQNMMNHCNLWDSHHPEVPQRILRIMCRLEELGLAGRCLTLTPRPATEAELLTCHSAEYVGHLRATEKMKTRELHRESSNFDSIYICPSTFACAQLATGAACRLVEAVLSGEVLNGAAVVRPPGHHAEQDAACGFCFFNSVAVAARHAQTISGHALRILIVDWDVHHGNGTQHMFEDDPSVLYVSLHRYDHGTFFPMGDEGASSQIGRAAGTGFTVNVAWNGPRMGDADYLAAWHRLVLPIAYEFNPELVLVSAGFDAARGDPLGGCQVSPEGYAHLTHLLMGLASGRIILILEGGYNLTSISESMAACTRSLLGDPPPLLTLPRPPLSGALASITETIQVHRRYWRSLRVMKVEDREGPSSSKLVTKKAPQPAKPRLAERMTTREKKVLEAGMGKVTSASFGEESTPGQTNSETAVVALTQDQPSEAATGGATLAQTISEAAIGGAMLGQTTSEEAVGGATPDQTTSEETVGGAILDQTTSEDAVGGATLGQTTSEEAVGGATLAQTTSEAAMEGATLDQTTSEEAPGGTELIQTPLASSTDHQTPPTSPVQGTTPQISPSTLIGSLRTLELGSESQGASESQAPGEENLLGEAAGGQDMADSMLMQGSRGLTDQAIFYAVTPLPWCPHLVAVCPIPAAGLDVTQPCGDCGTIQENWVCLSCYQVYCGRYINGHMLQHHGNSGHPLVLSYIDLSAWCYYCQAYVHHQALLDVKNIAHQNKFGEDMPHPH

[6] = Glutathione stability / reactivity assay; type: in vitro ADME; conditions: GSH adduct formation by LC/MS/MS; KT-531 up to 24 h
Procedure: Although covalent modification of HDAC6 was not observed (Figure S2), the PFBS group is susceptible to nucleophilic aromatic substitution by biological nucleophiles. A previously described high-throughput in vitro glutathione-reactivity assay was conducted, where compounds were incubated in the presence of glutathione (GSH) and the formation of a GSH-compound adduct was monitored over time via LC/MS/MS.[50]
Compound was added to PBS and 5 mM GSH to reach a final concentration of 5 μM. […] Samples were vortexed and centrifuged for 45 min at 3220g. Aliquots were diluted by ultrapure water, and used for LC/MS/MS analysis. Peak area ratios were determined and percent compounds remaining was calculated by the following equation: [drawing 1] where peak area ratio (t min) is the peak area ratio of control and test compounds at t min; peak area ratio0min is the peak area ratio of control and test compounds at the zero time point. In vitro half-life (t1/2) = −(0.693/k).

[7] = test system: MV4-11; assay: Cytotoxicity assay (Cell Titer-Blue, 72 h); type: cell-based; conditions: for IC50: Homo sapiens
[8] = MRC9, MRC-9 (healthy fibroblasts), read-out: In cellulo IC50 MRC-9
[9] = recombinant enzyme, read-out: In vitro IC50 HDAC6
[10] = MV4-11 (AML), read-out: In cellulo IC50 MV4-11

Row | SMILES | IC50 [1] [nM] | IC50 [2] [nM] | IC50 [3] [nM] | IC50 ([5]; read-out: IC50 HDAC6) [nM] | reactivity with glutathione [6] | IC50 [5, 9] [nM] | HDAC6 fold-selectivity [5] | selectivity toward HDAC8 [2] [fold] | IC50 [4, 8] [µM] | IC50 [7, 10] [nM] | activity in MV4-11 cells [7] | activity in MRC9 cells [4] | IC50 ([7]; MV4-11, read-out: In cellulo IC50 MV4-11) [nM] | IC50 ([4]; MRC9, read-out: In cellulo IC50 MRC-9) [µM]
1 | O=C(NO)c1ccc(CN(C2CC2)S(=O)(=O)c2ccc(F)cc2)cc1 [Compound 7, 4-(((N-Cyclopropyl-4-fluorophenyl)sulfonamido)methyl)-N-hydroxybenzamide] | 841 | 281 | > 1000 | – | – | 11 | 25.5 fold | – | > 50 | 8690 | – | – | – | –
2 | O=C(NO)c1ccc(CN(C2CC2)S(=O)(=O)c2cc(F)c(F)c(F)c2)cc1 [Compound 8, 4-(((N-Cyclopropyl-3,4,5-trifluorophenyl)sulfonamido)methyl)-N-hydroxybenzamide] | > 1000 | 273 | > 1000 | – | – | 14 | 20 fold and 19.5 fold | – | > 25 | 5980 | – | – | – | –
3 | O=C(NO)c1ccc(CN(C2CC2)S(=O)(=O)c2c(F)cc(F)cc2F)cc1 [Compound 9, 4-(((N-Cyclopropyl-2,4,6-trifluorophenyl)sulfonamido)methyl)-N-hydroxybenzamide] | > 1000 | 315 | > 1000 | – | – | 8 | 39.4 fold | – | > 20 | 8940 | – | – | – | –
4 | O=C(NO)c1ccc(CN(C2CC2)S(=O)(=O)c2c(F)c(Cl)c(F)c(Cl)c2F)cc1 [Compound 11, 4-(((3,5-Dichloro-N-cyclopropyl-2,4,6-trifluorophenyl)sulfonamido)methyl)-N-hydroxybenzamide] | > 1000 | 214 | 364 | – | – | 15 | 14.3 fold | – | > 50 | 670 | – | – | – | –
5 | O=C(NO)c1ccc(CN(C2CC2)S(=O)(=O)c2c(F)cc(F)c(Cl)c2F)cc1 [Compound 12, 4-(((3-Chloro-N-cyclopropyl-2,4,6-trifluorophenyl)sulfonamido)methyl)-N-hydroxybenzamide] | > 1000 | 201 | > 1000 | – | – | 9 | 22.3 fold | – | > 20 | 740 | – | – | – | –
6 | CCCCN(Cc1ccc(C(=O)NO)cc1)C(=O)Nc1ccccc1 [Nexturastat, reference compound] | – | – | – | – | – | – | – | – | – | 1680 | – | – | – | –
7 | COc1ccc(Cn2ccc3ccc(C(=O)NO)cc32)cc1 [PCI-34051, reference compound] | – | – | – | – | – | – | – | – | – | – | no observable activity | no observable activity | – | –
8 | O=C(CCCCCCNC(=O)c1cnc(N(c2ccccc2)c2ccccc2)nc1)NO [Ricolinostat, reference compound] | – | – | – | – | – | – | – | – | – | – | – | – | 810 | > 20

Continued, in another order:

Row | IC50 [1] [nM] | IC50 [2] [nM] | IC50 [3] [nM] | IC50 ([5]; read-out: IC50 HDAC6) [nM] | reactivity with glutathione [6] | IC50 [5, 9] [nM] | HDAC6 fold-selectivity [5] | selectivity toward HDAC8 [2] [fold] | SMILES | IC50 [4, 8] [µM] | IC50 [7, 10] [nM] | activity in MV4-11 cells [7] | activity in MRC9 cells [4] | IC50 ([7]; MV4-11, read-out: In cellulo IC50 MV4-11) [nM] | IC50 ([4]; MRC9, read-out: In cellulo IC50 MRC-9) [µM]
9 | > 1000 | > 1000 | > 1000 | 389 | – | – | – | – | O=C(NO)c1ccc(CNS(=O)(=O)c2c(F)c(F)c(F)c(F)c2F)cc1 [Compound 2, N-Hydroxy-4-(((perfluorophenyl)sulfonamido)methyl)benzamide] | > 25 | – | – | – | – | –
10 | – | 184 | 246 | – | react readily with glutathione | 2 | – | – | CN(Cc1ccc(C(=O)NO)cc1)S(=O)(=O)c1c(F)c(F)c(F)c(F)c1F [Compound 3, N-Hydroxy-4-(((2,3,4,5,6-pentafluoro-N-methylphenyl)sulfonamido)methyl)benzamide] | > 30 | – | – | – | – | –
11 | 932 | 653 | 941 | – | react readily with glutathione | 4 | – | – | CC(C)N(Cc1ccc(C(=O)NO)cc1)S(=O)(=O)c1c(F)c(F)c(F)c(F)c1F [Compound 4, N-Hydroxy-4-(((2,3,4,5,6-pentafluoro-N-isopropylphenyl)sulfonamido)methyl)benzamide] | > 10 | – | – | – | – | –
12 | > 1000 | 108 | > 1000 | – | – | 488 | – | 4 | O=C(NO)c1cccc(CN(C2CC2)S(=O)(=O)c2c(F)c(F)c(F)c(F)c2F)c1 [Compound 10, 3-(((N-Cyclopropyl-2,3,4,5,6-pentafluorophenyl)sulfonamido)methyl)-N-hydroxybenzamide] | > 50 | 1900 | – | – | – | –
13 | > 1000 | > 1000 | > 1000 | 70 | – | – | 14.3 fold and ≥ 14.3* fold | – | O=C(NO)c1ccc(CN(C2CC2)S(=O)(=O)c2c(F)c(F)c(Cl)c(F)c2F)cc1 [Compound 13, 4-(((4-Chloro-N-cyclopropyl-2,3,5,6-tetrafluorophenyl)sulfonamido)methyl)-N-hydroxybenzamide] | > 30 | 1380 | – | – | – | –
